Results: US12378208B2, “N-substituted oseltamivir derivatives with antimicrobial activity” (THE HONG KONG POLYTECHNIC UNIVERSITY, priority 2019, dated 2025)

Biological target: NA from A/H3N2 (Influenza A virus, UniProt O91745)
Test: biochemical
Assay type: biochemical, seasonal A/H3N2
Conditions: for IC50: Table 4, Example 34

Chain of NA from A/H3N2 (O91745 whole entry, looked up): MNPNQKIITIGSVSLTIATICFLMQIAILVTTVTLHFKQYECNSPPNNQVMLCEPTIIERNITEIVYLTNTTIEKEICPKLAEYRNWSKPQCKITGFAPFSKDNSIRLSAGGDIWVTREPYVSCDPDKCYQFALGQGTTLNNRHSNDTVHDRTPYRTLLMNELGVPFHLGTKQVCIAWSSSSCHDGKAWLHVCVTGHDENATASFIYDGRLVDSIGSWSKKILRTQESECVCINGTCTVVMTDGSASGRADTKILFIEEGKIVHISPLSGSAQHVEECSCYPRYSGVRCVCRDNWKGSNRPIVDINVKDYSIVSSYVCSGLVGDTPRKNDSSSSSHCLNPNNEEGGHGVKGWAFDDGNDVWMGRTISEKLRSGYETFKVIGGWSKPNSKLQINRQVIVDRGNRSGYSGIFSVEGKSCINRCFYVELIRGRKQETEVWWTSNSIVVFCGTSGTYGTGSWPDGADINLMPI

Compound | % Inhibition (1 nM) [%] | Inhibition rate, 1 μM [%] | Inhibition rate, 10 μM [%] | IC50 [µM]
CCC(CC)O[C@@H]1C=C(C(=O)O)C[C@H](NCc2ccc(-c3ccsc3)o2)[C@H]1NC(C)=O [Compound S20, (3R,4R,5S)-4-Acetamido-3-(pentan-3-yloxy)-5-(((5-(thiophen-3-yl)furan-2-yl)methyl)amino)cyclohex-1-ene-1-carboxylic acid] | 12.5 ± 2.3 |  |  | 
CCC(CC)O[C@@H]1C=C(C(=O)O)C[C@H](NC(=O)c2cnn(-c3ccc(C)cc3)c2)[C@H]1NC(C)=O [OC-010] |  | 8.96 | 52.31 | 43.9
CCC(CC)O[C@@H]1C=C(C(=O)O)C[C@H](NC(=O)c2cc(C3CC3)n(-c3ccccc3C)n2)[C@H]1NC(C)=O [OC-028] |  | 8.06 | 60.91 | 22.7
CCC(CC)O[C@@H]1C=C(C(=O)O)C[C@H](NC(=O)c2cnn(Cc3ccccc3)c2)[C@H]1NC(C)=O [OC-001] |  | 7.71 | 32.02 | 
CCC(CC)O[C@@H]1C=C(C(=O)O)C[C@H](NC(=O)c2cnn(Cc3ccc(OC)cc3)c2)[C@H]1NC(C)=O [OC-004] |  | −0.21 | 26.79 | 
CCC(CC)O[C@@H]1C=C(C(=O)O)C[C@H](NCc2noc(-c3ccc(Cl)cc3)n2)[C@H]1NC(C)=O [Compound S12, (3R,4R,5S)-4-Acetamido-5-(((5-(4-chlorophenyl)-1,2,4-oxadiazol-3-yl)methyl)amino)-3-(pentan-3-yloxy)cyclohex-1-ene-1-carboxylic acid] | 4.01 ± 5.9 |  |  | 
CCC(CC)O[C@@H]1C=C(C(=O)O)C[C@H](NCc2noc(-c3ccc(C(F)(F)F)cc3)n2)[C@H]1NC(C)=O [Compound S2, (3R,4R,5S)-4-acetamido-3-(pentan-3-yloxy)-5-(((5-(4-(trifluoromethyl)phenyl)-1,2,4-oxadiazol-3-yl)methyl)amino)cyclohex-1-ene-1-carboxylic acid] | 8.0 ± 1.7 |  |  | 
CCC(CC)O[C@@H]1C=C(C(=O)O)C[C@H](NC(=O)c2cc(-c3ccc(Cl)cc3)nn2CC2CCC2)[C@H]1NC(C)=O [OC-018] |  | 11.12 | 39.81 | 
CCC(CC)O[C@@H]1C=C(C(=O)O)C[C@H](NC(=O)c2cc(C3CC3)nn2-c2ccccc2C)[C@H]1NC(C)=O [OC-029] |  | 23.28 | 72.80 | 16.9
CCC(CC)O[C@@H]1C=C(C(=O)O)C[C@H](NCc2ccc(-c3cccc4c3oc3ccccc34)o2)[C@H]1NC(C)=O [Compound S23, (3R,4R,5S)-4-acetamido-5-(((5-(dibenzo[b,d]furan-4-yl)furan-2-yl)methyl)amino)-3-(pentan-3-yloxy)cyclohex-1-ene-1-carboxylic acid] | 10.9 ± 0.7 |  |  | 
CCC(CC)O[C@@H]1C=C(C(=O)O)C[C@H](NC(=O)c2cnn(-c3ccccc3C)c2)[C@H]1NC(C)=O [OC-016] |  | 12.74 | 38.37 | 
CCC(CC)O[C@@H]1C=C(C(=O)O)C[C@H](NC(=O)c2cc(-c3ccc(OC)cc3)n[nH]2)[C@H]1NC(C)=O [OC-017] |  | 14.83 | 42.02 | 
CCC(CC)O[C@@H]1C=C(C(=O)O)C[C@H](NCc2cc(-c3ccccc3)on2)[C@H]1NC(C)=O [Compound S24] | 1.6 ± 0.4 |  |  | 
CCC(CC)O[C@@H]1C=C(C(=O)O)C[C@H](NC(=O)c2cc(-c3ccc(Cl)cc3)n[nH]2)[C@H]1NC(C)=O [OC-011] |  | 14.65 | 50.43 | 
CCC(CC)O[C@@H]1C=C(C(=O)O)C[C@H](NC(=O)c2cnn(Cc3ccc(C(F)(F)F)cc3)c2)[C@H]1NC(C)=O [OC-006] |  | −2.25 | 21.72 | 
CCC(CC)O[C@@H]1C=C(C(=O)O)C[C@H](NCc2noc(-c3cccs3)n2)[C@H]1NC(C)=O [Compound S1, (3R,4R,5S)-4-acetamido-3-(pentan-3-yloxy)-5-(((5-(thiophen-2-yl)-1,2,4-oxadiazol-3-yl)methyl)amino)cyclohex-1-ene-1-carboxylic acid] | 0.0 ± 2.2 |  |  | 
CCC(CC)O[C@@H]1C=C(C(=O)O)C[C@H](NCc2noc(-c3ccc(F)cc3)n2)[C@H]1NC(C)=O [Compound S3, (3R,4R,5S)-4-acetamido-5-(((5-(4-fluorophenyl)-1,2,4-oxadiazol-3-yl)methyl)amino)-3-(pentan-3-yloxy)cyclohex-1-ene-1-carboxylic acid] | 0.0 ± 3.5 |  |  | 
CCC(CC)O[C@@H]1C=C(C(=O)O)C[C@H](NCc2noc(-c3ccc(Br)cc3)n2)[C@H]1NC(C)=O [Compound S5, (3R,4R,5S)-4-acetamido-5-(((5-(4-bromophenyl)-1,2,4-oxadiazol-3-yl)methyl)amino)-3-(pentan-3-yloxy)cyclohex-1-ene-1-carboxylic acid] | 1.7 ± 2.1 |  |  | 
CCC(CC)O[C@@H]1C=C(C(=O)O)C[C@H](NC(=O)c2cnn(Cc3cccc(Cl)c3)c2)[C@H]1NC(C)=O [OC-003] |  | 5.74 | 23.88 | 
CCC(CC)O[C@@H]1C=C(C(=O)O)C[C@H](NC(=O)c2cc(-c3ccc(Cl)cc3)nn2CC2CC2)[C@H]1NC(C)=O [OC-015] |  | 16.52 | 31.50 | 
CCC(CC)O[C@@H]1C=C(C(=O)O)C[C@H](NC(=O)c2cc(C3CC3)n(-c3ccc(C(F)(F)F)cc3)n2)[C@H]1NC(C)=O [OC-020] |  | 8.26 | 44.47 | 
CCC(CC)O[C@@H]1C=C(C(=O)O)C[C@H](NC(=O)c2cc(-c3ccccc3)n[nH]2)[C@H]1NC(C)=O [OC-008] |  | 5.84 | 42.81 | 
CCC(CC)O[C@@H]1C=C(C(=O)O)C[C@H](NC(=O)c2cnn(Cc3cccc(OC)c3)c2)[C@H]1NC(C)=O [OC-002] |  | 6.12 | 23.37 | 
CCC(CC)O[C@@H]1C=C(C(=O)O)C[C@H](NCc2noc(-c3ccccn3)n2)[C@H]1NC(C)=O [Compound S4] | 17.1 ± 2.0 |  |  | 
CCC(CC)O[C@@H]1C=C(C(=O)O)C[C@H](NCc2ccc(-c3cc(F)cc(F)c3)o2)[C@H]1NC(C)=O [Compound S17, (3R,4R,5S)-4-Acetamido-5-(((5-(3,5-difluorophenyl)furan-2-yl)methyl)amino)-3-(pentan-3-yloxy)cyclohex-1-ene-1-carboxylic acid] | 3.7 ± 3.8 |  |  | 
CCC(CC)O[C@@H]1C=C(C(=O)O)C[C@H](NC(=O)c2cnn(Cc3cccc([N+](=O)[O-])c3)c2)[C@H]1NC(C)=O [OC-007] |  | −5.33 | 12.26 | 
CCC(CC)O[C@@H]1C=C(C(=O)O)C[C@H](NC(=O)c2cc(C3CC3)n(-c3ccccc3)n2)[C@H]1NC(C)=O [OC-021] |  | 7.13 | 30.57 | 
CCC(CC)O[C@@H]1C=C(C(=O)O)C[C@H](NC(=O)c2cc(C3CC3)nn2-c2ccccc2)[C@H]1NC(C)=O [OC-013] |  | 19.92 | 30.41 | 
CCC(CC)O[C@@H]1C=C(C(=O)O)C[C@H](NC(=O)c2cc(-c3ccc(Cl)cc3)nn2CC2CCCCC2)[C@H]1NC(C)=O [OC-019] |  | 11.62 | 48.50 | 
CCC(CC)O[C@@H]1C=C(C(=O)O)C[C@H](NC(=O)c2cc(C3CC3)nn2-c2cccc(C)c2)[C@H]1NC(C)=O [OC-027] |  | 0.70 | 31.53 | 
